{"source": "ChEMBL document CHEMBL1201862", "about": "“PubChem BioAssay data set” (2004)", "experiment_in_all_cases": "NCI tumour cell line growth inhibition, 48 h", "key": {"[1]": {"test_system": "HCT-15"}, "[2]": {"test_system": "HOP-62"}, "[3]": {"test_system": "M19-MEL"}, "[4]": {"test_system": "SR"}, "[5]": {"test_system": "SF-295"}, "[6]": {"test_system": "SK-MEL-5"}, "[7]": {"test_system": "ACHN"}, "[8]": {"test_system": "LXFL 529"}, "[9]": {"test_system": "KM-20L2"}, "[10]": {"test_system": "NCI-H460"}, "[11]": {"test_system": "UO-31"}, "[12]": {"test_system": "CAKI-1"}, "[13]": {"test_system": "OVCAR-3"}, "[14]": {"test_system": "HCC 2998"}, "[15]": {"test_system": "RXF 393"}, "[16]": {"test_system": "Malme-3M"}, "[17]": {"test_system": "IGROV-1"}, "[18]": {"test_system": "RXF 631"}, "[19]": {"test_system": "MOLT-4"}, "[20]": {"test_system": "OVCAR-4"}, "[21]": {"test_system": "SF-268"}, "[22]": {"test_system": "DLD-1"}, "[23]": {"test_system": "KM12"}, "[24]": {"test_system": "SNB-75"}, "[25]": {"test_system": "SK-MEL-2"}, "[26]": {"test_system": "SN12C"}, "[27]": {"test_system": "HT-29"}, "[28]": {"test_system": "DMS-114"}, "[29]": {"test_system": "OVCAR-8"}, "[30]": {"test_system": "NCI-H522"}, "[31]": {"test_system": "SNB-78"}, "[32]": {"test_system": "SF-539"}, "[33]": {"test_system": "UACC-257"}, "[34]": {"test_system": "COLO 205"}, "[35]": {"test_system": "RPMI-8226"}, "[36]": {"test_system": "K562"}, "[37]": {"test_system": "HCT-116"}, "[38]": {"test_system": "SNB-19"}, "[39]": {"test_system": "UACC-62"}, "[40]": {"test_system": "M14"}, "[41]": {"test_system": "DMS-273"}, "[42]": {"test_system": "OVCAR-5"}, "[43]": {"test_system": "SW-620"}, "[44]": {"test_system": "NCI-H226"}, "[45]": {"test_system": "NCI-H23"}, "[46]": {"test_system": "U-251"}, "[47]": {"test_system": "A549"}, "[48]": {"test_system": "SK-MEL-28"}, "[49]": {"test_system": "TK-10"}, "[50]": {"test_system": "LOX IMVI"}, "[51]": {"test_system": "HOP-92"}, "[52]": {"test_system": "786-0"}, "[53]": {"test_system": "HOP-18"}}, "note": "Where “and” joins values, the source holds several entries; their conditions need not be identical. Identical values can stand only once.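 Growth conditions: 96-well plates. Treatment: test compound, 48 hours, 5 concentrations. Analysis: linear interpolation between bracketing concentrations; unreached endpoints set to highest concentration. GI50 = concentration required for 50% inhibition of growth.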 Calls of active or inactive are those of the source. No stated cut-off is given here; in the data, active = GI50 up to about 1.1 µM and inactive = higher."}
{"smiles": "CCOC(=O)c1nc2ccc(OC)cc2c2c1Cc1ccccc1-2", "values": [{"measurement": "GI50", "setting": "[1]", "result": "> 100", "unit": "µM"}, {"measurement": "GI50", "setting": "[2]", "result": "> 100 µM (inactive)"}, {"measurement": "GI50", "setting": "[3]", "result": "> 100 µM (inactive)"}, {"measurement": "GI50", "setting": "[4]", "result": "> 100 µM (inactive)"}, {"measurement": "GI50", "setting": "[5]", "result": "> 100 µM (inactive)"}, {"measurement": "GI50", "setting": "[6]", "result": "42.8 µM (inactive)"}, {"measurement": "GI50", "setting": "[7]", "result": "> 100 µM (inactive)"}, {"measurement": "GI50", "setting": "[8]", "result": "> 100 µM (inactive)"}, {"measurement": "GI50", "setting": "[9]", "result": "> 100 µM (inactive)"}, {"measurement": "GI50", "setting": "[10]", "result": "> 100 µM (inactive)"}, {"measurement": "GI50", "setting": "[11]", "result": "> 100 µM (inactive)"}, {"measurement": "GI50", "setting": "[12]", "result": "> 100 µM (inactive)"}, {"measurement": "GI50", "setting": "[13]", "result": "> 100 µM (inactive)"}, {"measurement": "GI50", "setting": "[14]", "result": "87.1 µM (inactive)"}, {"measurement": "GI50", "setting": "[15]", "result": "16.2 µM (inactive)"}, {"measurement": "GI50", "setting": "[16]", "result": "> 100 µM (inactive)"}, {"measurement": "GI50", "setting": "[17]", "result": "> 100 µM (inactive)"}, {"measurement": "GI50", "setting": "[18]", "result": "61.7 µM (inactive)"}, {"measurement": "GI50", "setting": "[19]", "result": "> 100 µM (inactive)"}, {"measurement": "GI50", "setting": "[20]", "result": "49.8 µM (inactive)"}, {"measurement": "GI50", "setting": "[21]", "result": "> 100 µM (inactive)"}, {"measurement": "GI50", "setting": "[22]", "result": "> 100 µM (inactive)"}, {"measurement": "GI50", "setting": "[23]", "result": "> 100 µM (inactive)"}, {"measurement": "GI50", "setting": "[24]", "result": "81.5 µM (inactive)"}, {"measurement": "GI50", "setting": "[25]", "result": "> 100 µM (inactive)"}, {"measurement": "GI50", "setting": "[26]", "result": "> 100 µM (inactive)"}, {"measurement": "GI50", "setting": "[27]", "result": "> 100 µM (inactive)"}, {"measurement": "GI50", "setting": "[28]", "result": "23.9 µM (inactive)"}, {"measurement": "GI50", "setting": "[29]", "result": "> 100 µM (inactive)"}, {"measurement": "GI50", "setting": "[30]", "result": "56.5 µM (inactive)"}, {"measurement": "GI50", "setting": "[31]", "result": "> 100 µM (inactive)"}, {"measurement": "GI50", "setting": "[32]", "result": "84.9 µM (inactive)"}, {"measurement": "GI50", "setting": "[33]", "result": "> 100 µM (inactive)"}, {"measurement": "GI50", "setting": "[34]", "result": "> 100 µM (inactive)"}, {"measurement": "GI50", "setting": "[35]", "result": "> 100 µM (inactive)"}, {"measurement": "GI50", "setting": "[36]", "result": "> 100 µM (inactive)"}, {"measurement": "GI50", "setting": "[37]", "result": "8.95 µM (inactive)"}, {"measurement": "GI50", "setting": "[38]", "result": "> 100 µM (inactive)"}, {"measurement": "GI50", "setting": "[39]", "result": "90.2 µM (inactive)"}, {"measurement": "GI50", "setting": "[40]", "result": "> 100 µM (inactive)"}, {"measurement": "GI50", "setting": "[41]", "result": "> 100 µM (inactive)"}, {"measurement": "GI50", "setting": "[42]", "result": "> 100 µM (inactive)"}, {"measurement": "GI50", "setting": "[43]", "result": "> 100 µM (inactive)"}, {"measurement": "GI50", "setting": "[44]", "result": "> 100 µM (inactive)"}, {"measurement": "GI50", "setting": "[45]", "result": "> 100 µM (inactive)"}, {"measurement": "GI50", "setting": "[46]", "result": "> 100 µM (inactive)"}, {"measurement": "GI50", "setting": "[47]", "result": "> 100 µM (inactive)"}, {"measurement": "GI50", "setting": "[48]", "result": "> 100 µM (inactive)"}, {"measurement": "GI50", "setting": "[49]", "result": "> 100 µM (inactive)"}, {"measurement": "GI50", "setting": "[50]", "result": "> 100 µM (inactive)"}]}
{"smiles": "CC(=O)OCC1OC(n2c(=S)n(-c3ccccc3)c(=S)c3ccccc32)C(OC(C)=O)C(OC(C)=O)C1OC(C)=O", "note": "(configuration not stated)", "values": [{"measurement": "GI50", "setting": "[51]", "result": "> 37.7 µM (inactive) and 41.1 µM (inactive)"}, {"measurement": "GI50", "setting": "[18]", "result": "> 57.3 µM (inactive) and 71.4 µM (inactive)"}, {"measurement": "GI50", "setting": "[32]", "result": "43.9 µM (inactive) and 48.5 µM (inactive)"}, {"measurement": "GI50", "setting": "[37]", "result": "> 89.1 µM (inactive) and 57 µM (inactive)"}, {"measurement": "GI50", "setting": "[52]", "result": "> 80.9 µM (inactive) and 62.8 µM (inactive)"}, {"measurement": "GI50", "setting": "[53]", "result": "6.87 µM (inactive)"}, {"measurement": "GI50", "setting": "[49]", "result": "16.9 µM (inactive)"}]}
